Results reported in PMC3295651, “Delineation of the Pasteurellaceae-specific GbpA-family of glutathione-binding proteins” (BMC Biochemistry, 2011).

Key:
Experiment in all cases: Thermofluor thermal shift (Sypro orange)
Format in all cases: binding
GbpAHi = target: T1, GbpAHi (Haemophilus influenzae, UniProt P33950)
T1 construct: gene hbpA; soluble non-lipidated form; leader replaced by PelB; his-tag
Text: Thermofluor thermal shift (Sypro orange) on GbpAHi

GbpAHp = target: T2, GbpAHp (Glaesserella parasuis, UniProt B8F653)
T2 construct: gene hbpA; non-lipoprotein; leader replaced by PelB; his-tag
T2 sequence (B8F653 23-531): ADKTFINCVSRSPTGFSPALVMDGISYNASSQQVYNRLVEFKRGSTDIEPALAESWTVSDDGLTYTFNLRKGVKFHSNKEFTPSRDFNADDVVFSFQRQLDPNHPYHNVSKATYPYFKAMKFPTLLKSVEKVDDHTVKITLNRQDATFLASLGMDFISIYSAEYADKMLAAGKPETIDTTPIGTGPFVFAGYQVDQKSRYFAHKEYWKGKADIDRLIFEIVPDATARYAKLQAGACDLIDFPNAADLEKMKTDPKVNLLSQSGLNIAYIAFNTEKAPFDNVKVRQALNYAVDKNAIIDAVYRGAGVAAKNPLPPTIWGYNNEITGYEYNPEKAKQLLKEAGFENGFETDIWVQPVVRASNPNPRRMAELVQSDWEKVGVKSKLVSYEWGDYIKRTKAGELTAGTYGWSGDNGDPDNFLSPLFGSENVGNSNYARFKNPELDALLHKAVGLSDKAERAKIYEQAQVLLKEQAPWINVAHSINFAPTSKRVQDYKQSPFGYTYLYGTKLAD
Text: Thermofluor thermal shift (Sypro orange) on GbpAHp

hbpA = target: T3, hbpA (Actinobacillus pleuropneumoniae, UniProt A3N3U8, C22M); conditions: read-out: GbpAAp
T3 construct: soluble non-lipidated form; mature start at position 22; C-terminal his-tag; E. coli, pET20b
T3 sequence (A3N3U8 22-545 C22M): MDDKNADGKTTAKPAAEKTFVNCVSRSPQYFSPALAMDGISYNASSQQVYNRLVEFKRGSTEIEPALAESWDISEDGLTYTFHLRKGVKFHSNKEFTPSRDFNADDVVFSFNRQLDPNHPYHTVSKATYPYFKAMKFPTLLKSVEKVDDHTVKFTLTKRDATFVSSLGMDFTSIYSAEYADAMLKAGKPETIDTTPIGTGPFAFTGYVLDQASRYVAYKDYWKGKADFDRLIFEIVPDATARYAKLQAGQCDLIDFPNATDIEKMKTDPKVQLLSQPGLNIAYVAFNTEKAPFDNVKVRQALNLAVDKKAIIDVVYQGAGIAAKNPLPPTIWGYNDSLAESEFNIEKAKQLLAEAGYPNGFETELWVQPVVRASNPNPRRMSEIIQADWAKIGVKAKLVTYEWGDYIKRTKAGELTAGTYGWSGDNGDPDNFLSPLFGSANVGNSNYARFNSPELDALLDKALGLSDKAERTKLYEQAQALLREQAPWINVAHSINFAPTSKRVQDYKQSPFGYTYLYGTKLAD
Text: Thermofluor thermal shift (Sypro orange) on GbpAAp

T1 sequence (P33950 19-547): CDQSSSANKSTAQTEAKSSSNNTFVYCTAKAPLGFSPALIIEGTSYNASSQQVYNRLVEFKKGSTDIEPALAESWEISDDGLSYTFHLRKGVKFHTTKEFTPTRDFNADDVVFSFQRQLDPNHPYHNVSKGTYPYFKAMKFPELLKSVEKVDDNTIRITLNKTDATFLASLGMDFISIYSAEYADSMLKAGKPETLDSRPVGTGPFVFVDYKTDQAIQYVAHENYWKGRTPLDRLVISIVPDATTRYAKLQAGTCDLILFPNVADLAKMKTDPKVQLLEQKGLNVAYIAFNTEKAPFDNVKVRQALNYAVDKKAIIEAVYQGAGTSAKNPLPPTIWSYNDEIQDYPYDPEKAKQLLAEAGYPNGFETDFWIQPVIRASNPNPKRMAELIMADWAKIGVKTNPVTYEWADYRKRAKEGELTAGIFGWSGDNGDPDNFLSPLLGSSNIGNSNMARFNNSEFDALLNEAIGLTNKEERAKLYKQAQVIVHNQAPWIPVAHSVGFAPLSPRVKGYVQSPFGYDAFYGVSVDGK

N[C@@H](CCC(=O)N[C@@H](CS)C(=O)NCC(=O)O)C(=O)O [GSH]
ΔTm at 1000 µM (GbpAHi): 12.5 °C

CSC[C@H](NC(=O)CC[C@H](N)C(=O)O)C(=O)NCC(=O)O [S-methylglutathione]
ΔTm at 1000 µM (GbpAHi): 10.5 °C

N[C@@H](CCC(=O)N[C@@H](CSN=O)C(=O)NCC(=O)O)C(=O)O [S-nitrosoglutathione]
ΔTm at 1000 µM (GbpAHp): 9.5 °C | ΔTm at 1000 µM (GbpAHi): 7 °C | ΔTm at 1000 µM (hbpA): 6.5 °C

N[C@@H](CCC(=O)N[C@@H](CSSC[C@H](N)C(=O)O)C(=O)NCC(=O)O)C(=O)O [glutathione cysteine disulfide]
ΔTm at 1000 µM (GbpAHp): 7 °C | ΔTm at 1000 µM (GbpAHi): 10 °C | ΔTm at 1000 µM (hbpA): 6 °C
